Values quoted from earlier work as cited in PubChem BioAssay AID1259409 (Chemical Carcinogenesis Research Information System (CCRIS), 2018).

Tested on: rodent chemically induced tumor inhibition, incidence and multiplicity
Assay: CCRIS tumor inhibitor studies

## CN(C)C(=O)Oc1cccc([N+](C)(C)C)c1
Carcinogen: AZOXYMETHANE, 25843-45-2, Dose [Inhibitor]: 0.1 MG/KG BW 1/2D IN DEPOT FORM BEGINNING 3 WK PRIOR TO FIRST CARCINOGEN DOSE (STUDY DURATION: 40 WK), Route [Inhibitor]: SUBCUTANEOUS, Species: RAT, Strain/Sex: WISTAR/MALE, Target Tissue: Type of Lesion: COLON: TUMOR, Dose [Carcinogen]: 7.4 MG/KG BW IN 0.9% SALINE SOLUTION 1/WK FOR 10 WK, Promoter: NONE USED
  tumour outcome (control, treated, inhibition, significance): 18/20 (90%), 9/19 (47%), 47%, p<0.02
Carcinogen: N-METHYL-N'-NITRO-N-NITROSOGUANIDINE, 70-25-7, Dose [Inhibitor]: 0, 0.075 MG/KG 1/2 D BEGINNING POST CARCINOGEN TREATMENT (STUDY DURATION: 52 WK), Route [Inhibitor]: SUBCUTANEOUS, Species: RAT, Strain/Sex: WISTAR/MALE, Target Tissue: Type of Lesion: STOMACH: ADENOCARCINOMA, Dose [Carcinogen]: 75 UG/ML IN DRINKING WATER FOR 25 WK, Promoter: NONE USED
  tumour outcome (control, treated, inhibition, significance): 16/20 (80%), 7/18 (39%), 51%, p<0.05
Carcinogen: N-METHYL-N'-NITRO-N-NITROSOGUANIDINE, 70-25-7, Dose [Inhibitor]: 0, 0.1 MG/KG IN OLIVE OIL SUSPENSION 1/D BEGINNING 1 WK POST LAST CARCINOGEN DOSE AND CONTINUING FOR DURATION OF STUDY (, Species: RAT, Strain/Sex: WISTAR/MALE, Target Tissue: Type of Lesion: GLANDULAR STOMACH: ADENOCARCINOMA, Dose [Carcinogen]: 50 UG/ML IN DRINKING WATER FOR 25 WK, Promoter: NONE USED
  tumour outcome (control, treated, inhibition, significance): 15/18 (83%), 7/19 (37%), 55%, p<0.02

## CC(C)=CCC/C(C)=C/CC/C(C)=C/CC/C=C(\C)CC/C=C(\C)CCC=C(C)C
Carcinogen: BENZO[A]PYRENE, 50-32-8, Dose [Inhibitor]: 25 MG IN 0.1 ML ACETONE 3/WK ADMINISTERED SIMULTANEOUSLY WITH CARCINOGEN FOR DURATION OF STUDY (STUDY DURATION: 440 D), Route [Inhibitor]: DERMAL, Species: MOUSE, Strain/Sex: ICR/FEMALE, Target Tissue: Type of Lesion: SKIN: PAPILLOMA, Dose [Carcinogen]: 5 UG IN 0.1 ML ACETONE 3/WK FOR DURATION OF STUDY, Promoter: NONE USED
  tumour outcome (control, treated, inhibition, significance): 16/50 (32%), 1/50 (2%), 94%, not calculated
Carcinogen: BENZO[A]PYRENE, 50-32-8, Dose [Inhibitor]: 25 MG IN 0.1 ML ACETONE 3/WK ADMINISTERED SIMULTANEOUSLY WITH CARCINOGEN FOR DURATION OF STUDY (STUDY DURATION: 440 D), Route [Inhibitor]: DERMAL, Species: MOUSE, Strain/Sex: ICR/FEMALE, Target Tissue: Type of Lesion: SKIN: SQUAMOUS CARCINOMA, Dose [Carcinogen]: 5 UG IN 0.1 ML ACETONE 3/WK FOR DURATION OF STUDY, Promoter: NONE USED
  tumour outcome (control, treated, inhibition, significance): 12/50 (24%), 0/50 (0%), 100%, not calculated

## Clc1cccc(-c2ccc(Cl)c(Cl)c2Cl)c1Cl
Carcinogen: DIETHYLNITROSAMINE, 55-18-5, Dose [Inhibitor]: 100 PPM IN DIET FOR 6 WK PRIOR TO CARCINOGEN DOSE (STUDY DURATION: 48 WK), Route [Inhibitor]: ORAL, Species: FISH, Strain/Sex: MT. SHASTA RAINBOW/MALE, FEMALE, Target Tissue: Type of Lesion: LIVER: HEPATOCELLULAR CARCINOMA AND HEPATOCHOLANGIOCELLULAR CARCINOMA, Dose [Carcinogen]: 250 PPM IN AQUEOUS SOLUTION FOR 24 HR, Promoter: NONE USED
  tumour outcome (control, treated, inhibition, significance): 105/131 (80%), 112/140 (80%), 0%, not significant

## CC(C)C(NC(=O)[C@@H]1CCCN1C(=O)[C@@H](NC(=O)c1ccc(C(=O)NS(=O)(=O)c2ccc(Br)cc2)cc1)C(C)C)C(=O)C(F)(F)F (some centres not stated)
Carcinogen: UV-B IRRADIATION, Dose [Inhibitor]: 0, 125 UG IN DMSO ADMINISTERED IMMEDIATELY PRIOR TO UV-B IRRADIATION AND 4 AND 24 HR POST IRRADIATION, CYCLE REPEATED 3/, Route [Inhibitor]: SUBCUTANEOUS, Species: MOUSE, Strain/Sex: SKH-1/FEMALE, Target Tissue: Type of Lesion: SKIN: CARCINOMA, Dose [Carcinogen]: 0.09 J/CM2 3/WK, Promoter: NONE USED
  tumour outcome (control, treated, inhibition, significance): 5/5 (100%), 2/5 (40%), 60%, not calculated
Carcinogen: UV-B IRRADIATION, Dose [Inhibitor]: 0, 125 UG IN DMSO ADMINISTERED IMMEDIATELY PRIOR TO UV-B IRRADIATION AND 4 AND 24 HR POST IRRADIATION, CYCLE REPEATED 3/, Route [Inhibitor]: SUBCUTANEOUS, Species: MOUSE, Strain/Sex: SKH-1/FEMALE, Target Tissue: Type of Lesion: SKIN: PAPILLOMA, Dose [Carcinogen]: 0.09 J/CM2 3/WK, Promoter: NONE USED
  tumour outcome (control, treated, inhibition, significance): 5/5 (100%), 3/5 (60%), 40%, not calculated

## Oc1c(Cl)c(Cl)c(Cl)c(Cl)c1Cl
Carcinogen: N-HYDROXY-2-ACETYLAMINOFLUORENE, 53-95-2, Dose [Inhibitor]: 0, 0.04 UMOL/G BW IN 10 µL/G BW TRIOCTANOIN ONCE 45 MIN PRIOR TO CARCINOGEN DOSE (STUDY DURATION: 10 MO), Route [Inhibitor]: INTRAPERITONEAL, Species: MOUSE, Strain/Sex: B6C3F1/MALE, Target Tissue: Type of Lesion: LIVER: HEPATOMA, Dose [Carcinogen]: 0.06 UMOL/G BW IN 5 µL/G BW OF 80% DMSO, Promoter: NONE USED
  tumour outcome (control, treated, inhibition, significance): 34/34 (100%), 19/33 (58%), 42%, not calculated
Carcinogen: N-HYDROXY-2-ACETYLAMINOFLUORENE, 53-95-2, Dose [Inhibitor]: 0, 0.04 UMOL/G BW IN 10 µL/G BW TRIOCTANOIN ONCE 45 MIN PRIOR TO CARCINOGEN DOSE (STUDY DURATION: 10 MO), Route [Inhibitor]: INTRAPERITONEAL, Species: MOUSE, Strain/Sex: B6C3F1/MALE, Target Tissue: Type of Lesion: LIVER: HEPATOMA, Dose [Carcinogen]: 0.11 UMOL/G BW IN 5 µL/G BW OF 80% DMSO, Promoter: NONE USED
  tumour outcome (control, treated, inhibition, significance): 33/33 (100%), 31/37 (84%), 16%, not calculated
Carcinogen: N-HYDROXY-2-ACETYLAMINOFLUORENE, 53-95-2, Dose [Inhibitor]: 0, 0.04 UMOL/G BW IN 10 µL/G BW TRIOCTANOIN ONCE 45 MIN PRIOR TO CARCINOGEN DOSE (STUDY DURATION: 10 MO), Route [Inhibitor]: INTRAPERITONEAL, Species: MOUSE, Strain/Sex: B6C3F1/MALE, Target Tissue: Type of Lesion: LIVER: HEPATOMA, Dose [Carcinogen]: 0.22 UMOL/G BW IN 5 µL/G BW OF 80% DMSO, Promoter: NONE USED
  tumour outcome (control, treated, inhibition, significance): 39/39 (100%), 31/41 (76%), 24%, not calculated

## CC(C)=CCC/C(C)=C/C=O
Carcinogen: DIMETHYLBENZANTHRACENE, 57-97-6, Dose [Inhibitor]: 0, 1 UMOL IN ACETONE 2/WK ADMINISTERED PRIOR TO EACH PROMOTER DOSE FOR 20 WK (STUDY DURATION: 21 WK), Route [Inhibitor]: DERMAL, Species: MOUSE, Strain/Sex: SKH/HR1/FEMALE, Target Tissue: Type of Lesion: SKIN: TUMOR, Dose [Carcinogen]: 0.1 UMOL IN 0.1 ML ACETONE ONCE, Promoter: TPA, 16561-29-8
  outcome: 88%, 72%, 18%, p 0.05 at 10 wk of promotion: 96%, 96%, 0%, not calculated at 15

## C=C1CC[C@H]2[C@](C)(COC(=O)[C@@H](CC(=O)O)[C@@H](OC[C@H]3C(=C)CC[C@H]4[C@](C)(CO)CCC[C@]34C)C(=O)OC)CCC[C@]2(C)[C@H]1CO[C@@H](C(=O)OC)[C@H](CC(=O)O)C(=O)OC
Carcinogen: 1,2-DIMETHYLHYDRAZINE DIHYDROCHLORIDE, 306-37-6, Dose [Inhibitor]: 0: 0.06% IN DIET FOR DURATION OF STUDY (STUDY DURATION: 25 WK), Route [Inhibitor]: ORAL, Species: MOUSE, Strain/Sex: ICR/FEMALE, Target Tissue: Type of Lesion: COLON: TUMOR, Dose [Carcinogen]: 10 MG/KG BW IN 0.9% SALINE 1/WK FOR 15 WK, Promoter: NONE USED
  tumour outcome (control, treated, inhibition, significance): 10/16 (63%), 5/16 (31%), 51%, not significant
Carcinogen: 7,12-DIMETHYLBENZ[A]ANTHRACENE, 57-97-6, Dose [Inhibitor]: 0, 1 MG 2/WK FOR 20 WK APPLIED 10 MIN PRIOR TO EACH PROMOTER DOSE (STUDY DURATION: 20 WK), Route [Inhibitor]: DERMAL, Species: MOUSE, Strain/Sex: CD-1/FEMALE, Target Tissue: Type of Lesion: SKIN: TUMOR, Dose [Carcinogen]: 100 UG ONCE, Promoter: OKADAIC ACID, 78111-17-8
  tumour outcome (control, treated, inhibition, significance): 73%, 53%, 27%, not calculated
Carcinogen: 7,12-DIMETHYLBENZ[A]ANTHRACENE, 57-97-6, Dose [Inhibitor]: 0, 5 MG 2/WK FOR 20 WK APPLIED 10 MIN PRIOR TO EACH PROMOTER DOSE (STUDY DURATION: 20 WK), Route [Inhibitor]: DERMAL, Species: MOUSE, Strain/Sex: CD-1/FEMALE, Target Tissue: Type of Lesion: SKIN: TUMOR, Dose [Carcinogen]: 100 UG ONCE, Promoter: OKADAIC ACID, 78111-17-8
  tumour outcome (control, treated, inhibition, significance): 73%, 20%, 73%, not calculated
Carcinogen: N-METHYL-N-NITROSOUREA, 684-93-5, Dose [Inhibitor]: 0, 0.2% IN DIET FOR 33 WK BEGINNING POST CARCINOGEN TREATMENT (STUDY DURATION: 35 WK), Route [Inhibitor]: ORAL, Species: RAT, Strain/Sex: F344/FEMALE, Target Tissue: Type of Lesion: COLON: TUMOR, Dose [Carcinogen]: 2 MG 3/WK FOR 2 WK, Promoter: NONE USED
  tumour outcome (control, treated, inhibition, significance): 12/16 (75%), 5/16 (31%), 57%, p<0.05

## CC(C)c1cc(C(=O)O)c(O)c(C(C)C)c1
Carcinogen: BENZO[A]PYRENE, 50-32-8, Dose [Inhibitor]: 2000 NMOL IN 0.2 ML ACETONE APPLIED ONCE TO DORSAL SKIN 15 MIN PRIOR TO CARCINOGEN DOSE (STUDY DURATION: 20 WK), Route [Inhibitor]: DERMAL, Species: MOUSE, Strain/Sex: SENCAR/FEMALE, Target Tissue: Type of Lesion: SKIN: PAPILLOMA, Dose [Carcinogen]: 200 NMOL IN 0.2 ML ACETONE ONCE
  tumour outcome (control, treated, inhibition, significance): 97%, 96%, 0.3%, not significant
